Measurements reported in US11000033B2, “Ketone or oxime compound, and herbicide” (NISSAN CHEMICAL CORPORATION, priority 2014, dated 2021).

How the values were obtained:
Assay type in all cases: in vivo
corn = test: Test Example 4: effect on crop by soil treatment (symbol c); conditions: application herbicide amount 320 g/ha
In short: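 Grown at 25° C. to 30° C. in a greenhouse, the crops came from seed sown spot-wise in sterilized diluvial soil under roughly 1.5 cm of covering soil.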

rapeseed [1] = test: Test Example 5: effect on crop by foliage application, plastic box (symbol g); conditions: 320 g/ha, 3 weeks after application
In short: (§1)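 Plants were raised from seed in a greenhouse (25° C. to 30° C.) after sowing in a plastic box of sterilized diluvial soil.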

rice = test: Test Example 4: effect on crop by soil treatment (symbol b); conditions: application herbicide amount 320 g/ha
In short: (§2)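 Greenhouse culture at 25° C. to 30° C. followed sowing of seed in spots on sterilized diluvial soil with a soil cover close to 1.5 cm thick.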

[2] = test system: Echinochloa crus-galli var. crus-galli; test: Test Example 5: herbicidal effect by foliage application, plastic box (symbol H); conditions: 320 g/ha, 3 weeks after application
In short: (§3)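 Effect is rated 3 weeks after a foliar spray of water-diluted emulsion concentrate at a predetermined herbicide amount. Plants had grown 14 days in a 25° C. to 30° C. greenhouse from seed in sterilized diluvial soil.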

[3] = test system: Echinochloa crus-galli var. crus-galli; test: Test Example 4: herbicidal effect by soil treatment (symbol H); conditions: application herbicide amount 320 g/ha
In short: (§4)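 Seeds were sown in sterilized diluvial soil, covered with about 1.5 cm of soil, and the soil surface was sprayed with a water-diluted emulsion of the compound at a predetermined rate. Plants grew in a greenhouse at 25° C. to 30° C.; effects were scored visually 3 weeks after application.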

Stellaria media = test: Test Example 4: herbicidal effect by soil treatment (symbol P); conditions: application herbicide amount 320 g/ha
In short: as §4

Monochoria vaginalis = test: Test Example 1: herbicidal activity, application before weed generation in submerged conditions (symbol C); conditions: application herbicide amount 320 g/ha
In short: (§5)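 Compound emulsion was diluted to a set herbicide amount and applied to the water surface on the sowing day, into submerged (4 cm) alluvial-soil pots sown with mixed weed seeds and transplanted 2.5-leaf rice. Pots were held in a 25–30 °C greenhouse, and weeds were scored 0–5 by herbicidal ratio after 3 weeks.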

rapeseed [4] = test: Test Example 4: effect on crop by soil treatment (symbol g); conditions: application herbicide amount 320 g/ha
In short: as §2

Amaranthus retroflexus [5] = test: Test Example 5: herbicidal effect by foliage application, plastic box (symbol N); conditions: 320 g/ha, 3 weeks after application
In short: as §3

Setaria viridis = test: Test Example 5: herbicidal effect by foliage application, plastic box (symbol G); conditions: 320 g/ha, 3 weeks after application
In short: as §3

Amaranthus retroflexus [6] = test: Test Example 4: herbicidal effect by soil treatment (symbol N); conditions: application herbicide amount 320 g/ha
In short: as §4

[7] = test system: directly sowed rice plant; test: Test Example 3: effect on crop by foliage application, Wagner pot (symbol b); conditions: application herbicide amount 320 g/ha, Table 24
In short: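 Plants are raised from seed in flooded paddy conditions: water stands 0.1–0.5 cm over alluvial soil, and the pot is kept in a greenhouse at 25–30 °C. Species sown are barnyardgrass (E. crus-galli var. crus-galli), Leptochloa chinensis, Cyperus difformis and rice.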

Scirpus juncoides = test: Test Example 1: herbicidal activity, application before weed generation in submerged conditions (symbol B); conditions: application herbicide amount 320 g/ha
In short: as §5

Cyperus difformis = test: Test Example 3: herbicidal effect by foliage application, Wagner pot (symbol E); conditions: application herbicide amount 320 g/ha, Table 24
In short: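 The compound, formulated as an emulsion and diluted with water to a predetermined rate, is applied uniformly to leaves of two-week-old seedlings growing in submerged alluvial soil at 25–30 °C. Rice is included. Each plant is assessed 3 weeks later using defined criteria.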

[8] = test system: Echinochloa oryzacola Vasing.; test: Test Example 1: herbicidal activity, application before weed generation in submerged conditions (symbol A); conditions: application herbicide amount 320 g/ha
In short: as §5

beet = test: Test Example 5: effect on crop by foliage application, plastic box (symbol f); conditions: 320 g/ha, 3 weeks after application
In short: as §1

| Structure (SMILES) | Effect on crop grade, c: corn (corn) | g: rapeseed, effect on crop grade (rapeseed [1]) | Effect on crop grade, b: directly sowed rice plant (rice) | H: Echinochloa crus-galli var. crus-galli, herbicidal effect grade [2] | Herbicidal effect grade, H: Echinochloa crus-galli var. crus-galli [3] | Herbicidal effect grade, P: Stellaria media (Stellaria media) | C (Monochoria vaginalis) herbicidal effect grade (Monochoria vaginalis) | Effect on crop grade, g: rapeseed (rapeseed [4]) | N: Amaranthus retroflexus, herbicidal effect grade (Amaranthus retroflexus [5]) | G: Setaria viridis, herbicidal effect grade (Setaria viridis) | Herbicidal effect grade, N: Amaranthus retroflexus (Amaranthus retroflexus [6]) | b (directly sowed rice plant) effect on crop grade [7] | B (Scirpus juncoides) herbicidal effect grade (Scirpus juncoides) | E herbicidal effect grade (Cyperus difformis) | A (Echinochloa oryzacola Vasing.) herbicidal effect grade [8] | f: beet, effect on crop grade (beet) |
| --- | --- | --- | --- | --- | --- | --- | --- | --- | --- | --- | --- | --- | --- | --- | --- | --- |
| CC(CC1CC(OC(=O)N2CCOCC2)=C(c2c(C)cc(-c3ccc(Cl)cc3)cc2C)C1=O)=NOCC(F)(F)F (mixture of isomers) [9-025] | 0 (Herbicidal ratio of 5% or lower (almost no effect)) | 0 (Herbicidal ratio of 5% or lower (almost no effect)) | 0 (Herbicidal ratio of 5% or lower (almost no effect)) | 1 (Herbicidal ratio of 5% or higher and lower than 20%) | 0 (Herbicidal ratio of 5% or lower (almost no effect)) | 0 (Herbicidal ratio of 5% or lower (almost no effect)) | 1 (Herbicidal ratio of 5% or higher and lower than 20%) | 0 (Herbicidal ratio of 5% or lower (almost no effect)) | 0 (Herbicidal ratio of 5% or lower (almost no effect)) | 4 (Herbicidal ratio of 70% or higher and lower than 90%) | 0 (Herbicidal ratio of 5% or lower (almost no effect)) | 2 (Herbicidal ratio of 20% or higher and lower than 40%) | 1 (Herbicidal ratio of 5% or higher and lower than 20%) | 0 (Herbicidal ratio of 5% or lower (almost no effect)) | 5 (Herbicidal ratio of 90% or more (almost completely withered)) | 0 (Herbicidal ratio of 5% or lower (almost no effect)) |
| CC(CC1CC(OC(=O)COc2ccccc2)=C(c2c(C)cc(-c3ccc(Cl)cc3)cc2C)C1=O)=NOCC(F)(F)F (mixture of isomers) [9-027] | 0 (Herbicidal ratio of 5% or lower (almost no effect)) | 4 (Herbicidal ratio of 70% or higher and lower than 90%) | 5 (Herbicidal ratio of 90% or more (almost completely withered)) | 5 (Herbicidal ratio of 90% or more (almost completely withered)) | 5 (Herbicidal ratio of 90% or more (almost completely withered)) | 3 (Herbicidal ratio of 40% or higher and lower than 70%) | 1 (Herbicidal ratio of 5% or higher and lower than 20%) | 1 (Herbicidal ratio of 5% or higher and lower than 20%) | 0 (Herbicidal ratio of 5% or lower (almost no effect)) | 5 (Herbicidal ratio of 90% or more (almost completely withered)) | 3 (Herbicidal ratio of 40% or higher and lower than 70%) | 3 (Herbicidal ratio of 40% or higher and lower than 70%) | 2 (Herbicidal ratio of 20% or higher and lower than 40%) | 5 (Herbicidal ratio of 90% or more (almost completely withered)) | 5 (Herbicidal ratio of 90% or more (almost completely withered)) | 0 (Herbicidal ratio of 5% or lower (almost no effect)) |
| COC(=O)C(C(=O)C1CC1)C1CC(O)=C(c2c(C)cc(Br)cc2C)C1=O (mixture of isomers) [10-002] | 0 (Herbicidal ratio of 5% or lower (almost no effect)) | 0 (Herbicidal ratio of 5% or lower (almost no effect)) | 4 (Herbicidal ratio of 70% or higher and lower than 90%) | 5 (Herbicidal ratio of 90% or more (almost completely withered)) | 4 (Herbicidal ratio of 70% or higher and lower than 90%) | 0 (Herbicidal ratio of 5% or lower (almost no effect)) | 0 (Herbicidal ratio of 5% or lower (almost no effect)) | 0 (Herbicidal ratio of 5% or lower (almost no effect)) | 0 (Herbicidal ratio of 5% or lower (almost no effect)) | 5 (Herbicidal ratio of 90% or more (almost completely withered)) | 0 (Herbicidal ratio of 5% or lower (almost no effect)) | 5 (Herbicidal ratio of 90% or more (almost completely withered)) | 0 (Herbicidal ratio of 5% or lower (almost no effect)) | 3 (Herbicidal ratio of 40% or higher and lower than 70%) | 1 (Herbicidal ratio of 5% or higher and lower than 20%) | 0 (Herbicidal ratio of 5% or lower (almost no effect)) |
| CON=C(C)CC1(C)CC(O)=C(c2c(C)cc(C)cc2C)C1=O (mixture of isomers) [11-002] | 1 (Herbicidal ratio of 5% or higher and lower than 20%) | 4 (Herbicidal ratio of 70% or higher and lower than 90%) | 4 (Herbicidal ratio of 70% or higher and lower than 90%) | 5 (Herbicidal ratio of 90% or more (almost completely withered)) | 3 (Herbicidal ratio of 40% or higher and lower than 70%) | 0 (Herbicidal ratio of 5% or lower (almost no effect)) | 0 (Herbicidal ratio of 5% or lower (almost no effect)) | 2 (Herbicidal ratio of 20% or higher and lower than 40%) | 0 (Herbicidal ratio of 5% or lower (almost no effect)) | 4 (Herbicidal ratio of 70% or higher and lower than 90%) | 0 (Herbicidal ratio of 5% or lower (almost no effect)) | 5 (Herbicidal ratio of 90% or more (almost completely withered)) | 0 (Herbicidal ratio of 5% or lower (almost no effect)) | 4 (Herbicidal ratio of 70% or higher and lower than 90%) | 2 (Herbicidal ratio of 20% or higher and lower than 40%) | 0 (Herbicidal ratio of 5% or lower (almost no effect)) |
| CON=C(C)CC1C(O)=C(c2c(C)cc(C)cc2C)C(=O)C1C (mixture of isomers) [12-002] | 3 (Herbicidal ratio of 40% or higher and lower than 70%) | 5 (Herbicidal ratio of 90% or more (almost completely withered)) | 4 (Herbicidal ratio of 70% or higher and lower than 90%) | 5 (Herbicidal ratio of 90% or more (almost completely withered)) | 5 (Herbicidal ratio of 90% or more (almost completely withered)) | 0 (Herbicidal ratio of 5% or lower (almost no effect)) | 2 (Herbicidal ratio of 20% or higher and lower than 40%) | 1 (Herbicidal ratio of 5% or higher and lower than 20%) | 0 (Herbicidal ratio of 5% or lower (almost no effect)) | 5 (Herbicidal ratio of 90% or more (almost completely withered)) | 0 (Herbicidal ratio of 5% or lower (almost no effect)) | 5 (Herbicidal ratio of 90% or more (almost completely withered)) | 3 (Herbicidal ratio of 40% or higher and lower than 70%) | 5 (Herbicidal ratio of 90% or more (almost completely withered)) | 5 (Herbicidal ratio of 90% or more (almost completely withered)) | 3 (Herbicidal ratio of 40% or higher and lower than 70%) |
